Test results: the supplement of paper PMC10307832

Assays:
Assay in all cases: relative viability (nuclei count vs DMSO), 5 days (fraction); higher = more cells survive
NCI-H2347 = test system: NCI-H2347
Procedure, shortened: (§1)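 Five library-drug doses in √10 steps were combined with a fixed anchor-drug dose, or a single drug was given alone, by pin tool to lung cancer cell lines in 1536-well plates the day after seeding. Nuclei were stained and counted after 5 days. Relative viability is the nuclei count in treated wells over that in vehicle wells, taken as the median of duplicate plates.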

RERF-LC-KJ = test system: RERF-LC-KJ
Procedure, shortened: as §1

PC-14 = test system: PC-14
Procedure, shortened: as §1

NCI-H2087 = test system: NCI-H2087
Procedure, shortened: as §1

201T = test system: 201T
Procedure, shortened: as §1

NCI-H2126 = test system: NCI-H2126
Procedure, shortened: as §1

COR-L 105 = test system: COR-L 105
Procedure, shortened: as §1

NCI-H1666 = test system: NCI-H1666
Procedure, shortened: as §1

NCI-H2405 = test system: NCI-H2405
Procedure, shortened: as §1

NCI-H1915 = test system: NCI-H1915
Procedure, shortened: as §1

NCI-H647 = test system: NCI-H647
Procedure, shortened: as §1

H3255 = test system: H3255
Procedure, shortened: as §1

NCI-H650 = test system: NCI-H650
Procedure, shortened: as §1

NCI-H23 = test system: NCI-H23
Procedure, shortened: as §1

NCI-H661 = test system: NCI-H661
Procedure, shortened: as §1

HCC-78 = test system: HCC-78
Procedure, shortened: as §1

EPLC-272H = test system: EPLC-272H
Procedure, shortened: as §1

HCC-827 = test system: HCC-827
Procedure, shortened: as §1

LCLC-97TM1 = test system: LCLC-97TM1
Procedure, shortened: as §1

NCI-H520 = test system: NCI-H520
Procedure, shortened: as §1

LC-2-ad = test system: LC-2-ad
Procedure, shortened: as §1

SMILES: COc1nc(C)cnc1NS(=O)(=O)c1cccnc1-c1ccc(-c2nnco2)cc1 [Zibotentan] + C[C@]1(O)C[C@@H](c2nc(-c3ccc4ccc(-c5ccccc5)nc4c3)c3c(N)nccn32)C1 [Linsitinib] (partner 1 µM)
- relative viability (NCI-H2347; first compound 0.08 µM): 0.982
- relative viability (NCI-H2347; first compound 0.253 µM): 0.833
- relative viability (NCI-H2347; first compound 0.8 µM): 1.11
- relative viability (NCI-H2347; first compound 2.53 µM): 0.969
- relative viability (RERF-LC-KJ; first compound 0.08 µM): 0.885
- relative viability (RERF-LC-KJ; first compound 0.253 µM): 0.859
- relative viability (RERF-LC-KJ; first compound 0.8 µM): 0.803
- relative viability (RERF-LC-KJ; first compound 2.53 µM): 0.892
- relative viability (PC-14; first compound 0.08 µM): 1
- relative viability (PC-14; first compound 0.253 µM): 0.888
- relative viability (PC-14; first compound 0.8 µM): 0.937
- relative viability (PC-14; first compound 2.53 µM): 1.02
- relative viability (NCI-H2087; first compound 0.08 µM): 1.2
- relative viability (NCI-H2087; first compound 0.253 µM): 0.971
- relative viability (NCI-H2087; first compound 0.8 µM): 1.07
- relative viability (NCI-H2087; first compound 2.53 µM): 0.914
- relative viability (201T; first compound 0.08 µM): 1
- relative viability (201T; first compound 0.253 µM): 1.02
- relative viability (201T; first compound 0.8 µM): 1.01
- relative viability (201T; first compound 2.53 µM): 1.13
- relative viability (NCI-H2126; first compound 0.08 µM): 0.733
- relative viability (NCI-H2126; first compound 0.253 µM): 0.625
- relative viability (NCI-H2126; first compound 0.8 µM): 0.745
- relative viability (NCI-H2126; first compound 2.53 µM): 0.716
- relative viability (COR-L 105; first compound 0.08 µM): 1.02
- relative viability (COR-L 105; first compound 0.253 µM): 0.871
- relative viability (COR-L 105; first compound 0.8 µM): 0.986
- relative viability (COR-L 105; first compound 2.53 µM): 0.919
- relative viability (NCI-H1666; first compound 0.08 µM): 0.656
- relative viability (NCI-H1666; first compound 0.253 µM): 0.709
- relative viability (NCI-H1666; first compound 0.8 µM): 0.877
- relative viability (NCI-H1666; first compound 2.53 µM): 0.825
- relative viability (NCI-H2405; first compound 0.08 µM): 1.07
- relative viability (NCI-H2405; first compound 0.253 µM): 0.796
- relative viability (NCI-H2405; first compound 0.8 µM): 0.908
- relative viability (NCI-H2405; first compound 2.53 µM): 0.959
- relative viability (NCI-H1915; first compound 0.08 µM): 0.917
- relative viability (NCI-H1915; first compound 0.253 µM): 1.19
- relative viability (NCI-H1915; first compound 0.8 µM): 1.11
- relative viability (NCI-H1915; first compound 2.53 µM): 1.08
- relative viability (NCI-H647; first compound 0.08 µM): 1.12
- relative viability (NCI-H647; first compound 0.253 µM): 1.14
- relative viability (NCI-H647; first compound 0.8 µM): 1.11
- relative viability (NCI-H647; first compound 2.53 µM): 1.15
- relative viability (H3255; first compound 0.08 µM): 1.02
- relative viability (H3255; first compound 0.253 µM): 0.998
- relative viability (H3255; first compound 0.8 µM): 0.899
- relative viability (H3255; first compound 2.53 µM): 0.983
- relative viability (NCI-H650; first compound 0.08 µM): 1
- relative viability (NCI-H650; first compound 0.253 µM): 0.676
- relative viability (NCI-H650; first compound 0.8 µM): 1.02
- relative viability (NCI-H650; first compound 2.53 µM): 0.881
- relative viability (NCI-H23; first compound 0.08 µM): 0.614
- relative viability (NCI-H23; first compound 0.253 µM): 0.545
- relative viability (NCI-H23; first compound 0.8 µM): 0.653
- relative viability (NCI-H23; first compound 2.53 µM): 0.477
- relative viability (NCI-H661; first compound 0.08 µM): 0.545
- relative viability (NCI-H661; first compound 0.253 µM): 0.486
- relative viability (NCI-H661; first compound 0.8 µM): 0.518
- relative viability (NCI-H661; first compound 2.53 µM): 0.68
- relative viability (HCC-78; first compound 0.08 µM): 0.548
- relative viability (HCC-78; first compound 0.253 µM): 0.503
- relative viability (HCC-78; first compound 0.8 µM): 0.411
- relative viability (HCC-78; first compound 2.53 µM): 0.49
- relative viability (EPLC-272H; first compound 0.08 µM): 1.06
- relative viability (EPLC-272H; first compound 0.253 µM): 1.23
- relative viability (EPLC-272H; first compound 0.8 µM): 1.33
- relative viability (EPLC-272H; first compound 2.53 µM): 1.22
- relative viability (HCC-827; first compound 0.08 µM): 0.994
- relative viability (HCC-827; first compound 0.253 µM): 0.993
- relative viability (HCC-827; first compound 0.8 µM): 0.98
- relative viability (HCC-827; first compound 2.53 µM): 0.988
- relative viability (LCLC-97TM1; first compound 0.08 µM): 0.152
- relative viability (LCLC-97TM1; first compound 0.253 µM): 0.171
- relative viability (LCLC-97TM1; first compound 0.8 µM): 0.175
- relative viability (LCLC-97TM1; first compound 2.53 µM): 0.215
- relative viability (NCI-H520; first compound 0.08 µM): 1.05
- relative viability (NCI-H520; first compound 0.253 µM): 0.892
- relative viability (NCI-H520; first compound 0.8 µM): 0.904
- relative viability (NCI-H520; first compound 2.53 µM): 1.02
- relative viability (LC-2-ad; first compound 0.08 µM): 0.904
- relative viability (LC-2-ad; first compound 0.253 µM): 0.828
- relative viability (LC-2-ad; first compound 0.8 µM): 0.87
- relative viability (LC-2-ad; first compound 2.53 µM): 0.976
